In PubChem BioAssay AID2060611 (Molecular Pharmacology Branch, DTP, NCI, 2025):

Tested on: 628569-122-R-J1-PDC complex spheroid viability
Assay: Anticancer human tumor 628569-122-R-J1-PDC patient-derived head and neck squamous carcinoma cell line growth inhibition [CLK]
Conditions: for IC50: curve of first compound; for viability, T/C: stronger effect = lower value
How it was run: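 Patient-derived tumor cells grown as complex spheroids with HUVEC endothelial cells and mesenchymal stem cells, treated with drug combinations. Concentrations descend in half-log steps from near clinical Cmax, or from 10 microM if Cmax unknown.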

[1] = second compound 0.0316 µM, first compound 0.0316 µM
[2] = second compound 0.0316 µM, first compound 0.1 µM
[3] = second compound 0.0316 µM, first compound 0.316 µM
[4] = second compound 0.0316 µM, first compound 1 µM
[5] = second compound 0.0316 µM, first compound 3.16 µM
[6] = second compound 0.0316 µM, first compound 10 µM
[7] = second compound 0.1 µM, first compound 0.0316 µM
[8] = second compound 0.1 µM, first compound 0.1 µM
[9] = second compound 0.1 µM, first compound 0.316 µM
[10] = second compound 0.1 µM, first compound 1 µM
[11] = second compound 0.1 µM, first compound 3.16 µM
[12] = second compound 0.1 µM, first compound 10 µM
[13] = second compound 0.316 µM, first compound 0.0316 µM
[14] = second compound 0.316 µM, first compound 0.1 µM
[15] = second compound 0.316 µM, first compound 0.316 µM
[16] = second compound 0.316 µM, first compound 1 µM
[17] = second compound 0.316 µM, first compound 3.16 µM
[18] = second compound 0.316 µM, first compound 10 µM
[19] = second compound 1 µM, first compound 0.0316 µM
[20] = second compound 1 µM, first compound 0.1 µM
[21] = second compound 1 µM, first compound 0.316 µM
[22] = second compound 1 µM, first compound 1 µM
[23] = second compound 1 µM, first compound 3.16 µM
[24] = second compound 1 µM, first compound 10 µM
[25] = second compound 3.16 µM, first compound 0.0316 µM
[26] = second compound 3.16 µM, first compound 0.1 µM
[27] = second compound 3.16 µM, first compound 0.316 µM
[28] = second compound 3.16 µM, first compound 1 µM
[29] = second compound 3.16 µM, first compound 3.16 µM
[30] = second compound 3.16 µM, first compound 10 µM
[31] = second compound 10 µM, first compound 0.0316 µM
[32] = second compound 10 µM, first compound 0.1 µM
[33] = second compound 10 µM, first compound 0.316 µM
[34] = second compound 10 µM, first compound 1 µM
[35] = second compound 10 µM, first compound 3.16 µM
[36] = second compound 10 µM, first compound 10 µM
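Note: spheroids exposed to agents for seven days before readout.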
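Throughout, for viability, T/C: 100% = DMSO vehicle control viability.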

SMILES: Nc1ccn(C2OC(CO)C(O)C2(F)F)c(=O)n1 (centres undefined) + CNC(=O)c1ccc(Nc2nc(OC3CCCC3)c3c(-c4ccc5nc(C)oc5c4)c[nH]c3n2)c(OC)c1
- IC50 (second compound 0.0316 µM): 200 nM
- IC50 (second compound 0.1 µM): > 10000 nM
- IC50 (second compound 0.316 µM): < 31.6 nM
- IC50 (second compound 1 µM): < 31.6 nM
- IC50 (second compound 3.16 µM): < 31.6 nM
- IC50 (second compound 10 µM): < 31.6 nM
- viability, T/C [1]: 65.9%
- viability, T/C [2]: 51.8%
- viability, T/C [3]: 50.4%
- viability, T/C [4]: 40.7%
- viability, T/C [5]: 50.8%
- viability, T/C [6]: 51.8%
- viability, T/C [7]: 53.1%
- viability, T/C [8]: 52.3%
- viability, T/C [9]: 49.5%
- viability, T/C [10]: 43.9%
- viability, T/C [11]: 57.2%
- viability, T/C [12]: 49.3%
- viability, T/C [13]: 49.9%
- viability, T/C [14]: 50.3%
- viability, T/C [15]: 50.5%
- viability, T/C [16]: 40.6%
- viability, T/C [17]: 47.3%
- viability, T/C [18]: 51.8%
- viability, T/C [19]: 43.2%
- viability, T/C [20]: 47%
- viability, T/C [21]: 42.1%
- viability, T/C [22]: 35.8%
- viability, T/C [23]: 32.8%
- viability, T/C [24]: 45.6%
- viability, T/C [25]: 45%
- viability, T/C [26]: 43.6%
- viability, T/C [27]: 38.2%
- viability, T/C [28]: 33.5%
- viability, T/C [29]: 50.3%
- viability, T/C [30]: 39.5%
- viability, T/C [31]: 49.3%
- viability, T/C [32]: 46.1%
- viability, T/C [33]: 39.5%
- viability, T/C [34]: 31.3%
- viability, T/C [35]: 36.6%
- viability, T/C [36]: 39.8%

SMILES: O=c1[nH]cc(F)c(=O)[nH]1 + CNC(=O)c1ccc(Nc2nc(OC3CCCC3)c3c(-c4ccc5nc(C)oc5c4)c[nH]c3n2)c(OC)c1
- IC50 (second compound 0.0316 µM): > 10000 nM
- IC50 (second compound 0.1 µM): > 10000 nM
- IC50 (second compound 0.316 µM): > 10000 nM
- IC50 (second compound 1 µM): < 31.6 nM
- IC50 (second compound 3.16 µM): < 31.6 nM
- IC50 (second compound 10 µM): < 31.6 nM
- viability, T/C [1]: 108%
- viability, T/C [2]: 99.2%
- viability, T/C [3]: 101%
- viability, T/C [4]: 84.8%
- viability, T/C [5]: 72.9%
- viability, T/C [6]: 60.6%
- viability, T/C [7]: 59.1%
- viability, T/C [8]: 52.6%
- viability, T/C [9]: 62.2%
- viability, T/C [10]: 52.7%
- viability, T/C [11]: 60.4%
- viability, T/C [12]: 49.8%
- viability, T/C [13]: 50.9%
- viability, T/C [14]: 60.5%
- viability, T/C [15]: 52.4%
- viability, T/C [16]: 54%
- viability, T/C [17]: 60.3%
- viability, T/C [18]: 47.8%
- viability, T/C [19]: 43.5%
- viability, T/C [20]: 50.4%
- viability, T/C [21]: 41.6%
- viability, T/C [22]: 52.3%
- viability, T/C [23]: 54.7%
- viability, T/C [24]: 47.7%
- viability, T/C [25]: 44.9%
- viability, T/C [26]: 44.9%
- viability, T/C [27]: 48.8%
- viability, T/C [28]: 48.8%
- viability, T/C [29]: 48.8%
- viability, T/C [30]: 35.6%
- viability, T/C [31]: 45.4%
- viability, T/C [32]: 37.9%
- viability, T/C [33]: 46%
- viability, T/C [34]: 46%
- viability, T/C [35]: 47.5%
- viability, T/C [36]: 45.3%
